Measurements as given in article PMC6376154 (International Journal for Parasitology: Drugs and Drug …, 2019).
Read-outs that look alike come from different tables or passages of the source.

Key:
[1] = tested on: F100TpM, a bovine lymphocyte cell line infected by T. parva; experiment: 3H-thymidine incorporation growth assay on F100TpM cells (screen at 1 μM and IC50 titration); conditions: for TI (CC50/IC50), therapeutic index: CC50 on Con A blasts divided by IC50 on F100TpM;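 for all read-outs here: growth inhibition compared against wells lacking compound, run in triplicate, and CC50 derived from 3H-thymidine uptake by PBMC stimulated with ConA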
Method: (§1) All the MMV compounds were initially tested for inhibitory activity on the growth of F100TpM, a bovine lymphocyte cell line infected by T. parva. […] All compounds were tested in triplicate.
(§2) The radiolabeled precursor ^3H-thymidine is incorporated into DNA strands during cell replication and radioisotope incorporation is often used as a measure of cell proliferation.
(§3) IC50 values were calculated using the Graph Pad Prism 7 software (GraphPad Software, Inc., La Jolla, CA), and average values of radio-isotope incorporation in wells with and without compound on the growth of F100TpM cells. The CC50 values were calculated using ^3H-thymidine incorporation values determined on the growth of PBMC stimulated with ConA. The therapeutic index of a compound was calculated by dividing the CC50 value with the IC50 value.

in vitro = conditions: bovine, CC50 (μM) Con A blasts
Method: as §1, §2, §3

[2] = 3H-thymidine incorporation toxicity assay on ConA-stimulated uninfected bovine PBMC (CC50); conditions: bovine, uninfected bovine PBMC stimulated with ConA (Con A blasts), CC50 (μM) Con A blasts, uninfected bovine PBMC stimulated with ConA, 48 h compound, 3H-thymidine incorporation
Method: as §1, §2, §3

[3] = tested on: bovine PBMC stimulated with ConA (Con A blasts); experiment: as above; conditions: read-out: CC50 (μM) Con A blasts; uninfected bovine PBMC stimulated with ConA, 48 h compound, 3H-thymidine incorporation
Method: as §1, §2, §3

U87 = tested on: U87; set-up: method as in Van Voorhis et al., 2016; conditions: at 5 μM; only one of nine cell lines tested; ref Van Voorhis et al., 2016; cited from earlier work
[4] = tested on: Plasmodium berghei ookinete; set-up: method as in Van Voorhis et al., 2016; conditions: at 10 μM; ref Van Voorhis et al., 2016; cited from earlier work
[5] = tested on: P. falciparum gametocyte NF54-late stage; set-up: method as in Van Voorhis et al., 2016; conditions: at 5 μM; ref Van Voorhis et al., 2016; cited from earlier work
[6] = tested on: P. falciparum 3D7 asexual blood stage; conditions: cited from earlier work
Trypanosoma cruzi = tested on: Trypanosoma cruzi; set-up: method as in Van Voorhis et al., 2016; conditions: at 5 μM; ref Van Voorhis et al., 2016; cited from earlier work
[7] = set-up: method as in MMV data sheet; conditions: at 5 uM; ref MMV data sheet; cited from earlier work
[8] = set-up: method as in MMV data sheets; conditions: at 5 uM; ref MMV data sheets; cited from earlier work
T. annulata gene TaSP = tested on: T. annulata gene TaSP; set-up: method as in Hostettler et al., 2016; conditions: ref Hostettler et al., 2016; cited from earlier work
[9] = tested on: Theileria annulata infected cell lines; set-up: method as in Hostettler et al., 2016; conditions: ref Hostettler et al., 2016; cited from earlier work
[10] = tested on: human foreskin fibroblast control cells; set-up: method as in Hostettler et al., 2016; conditions: T. annulata assay; ref Hostettler et al., 2016; cited from earlier work
[11] = tested on: bovine PBMC stimulated with ConA (Con A blasts)
Method: as §1, §2, §3

[12] = read-out: IC50 (μM) F100TpM, T. parva infected lymphocyte cell line, 48 h compound, 3H-thymidine incorporation
[13] = Bos taurus, Lymphocyte, read-out: IC50 (μM) F100TpM, T. parva infected lymphocyte cell line, 48 h compound, 3H-thymidine incorporation
[14] = given in Comment because of solubility issue at 5 uM, ref MMV data sheets
[15] = source GSK, ref ChEMBL_NTD, read-out: CHEMBL EC50

Cc1nc(Nc2ncc(C(=O)Nc3c(C)cccc3Cl)s2)cc(N2CCN(CCO)CC2)n1 [Dasatinib, dasatinib, reference compound]
TI (CC50/IC50), therapeutic index [1]: > 2000
CC50 at 48 h (in vitro): > 10 µM

COC(=O)Nc1nc2ccc(C(=O)c3ccccc3)cc2[nH]1 [MMV003152, Mebendazole, reference compound]
TI (CC50/IC50), therapeutic index [1]: <0.001
IC50 [1, 12]: 0.36 µM
IC50 ([1]; read-out: IC50 (μM) F100TpM, T. parva infected lymphocyte cell line, 48 h compound, 3H-thymidine incorporation, listed as mebendazole): < 1 µM
CC50 at 48 h (in vitro): < 0.001 µM

COc1ccc2nc(C)cc(Nc3cccc(O)c3)c2c1 [MMV008212]
CC50 at 48 h [2]: > 5 µM
CC50 [3]: > 10 µM
IC50 [1, 13]: 0.78 µM
TI (CC50/IC50), therapeutic index [1]: >12
cell death, U87 cell line (U87): 76%
growth inhibition of Plasmodium berghei ookinete [4]: 76%
growth inhibition of P. falciparum gametocyte NF54-late stage [5]: 91%
percent_inh @ 5 uM ([6]; MMV Malaria Box sheet, ref MMV data sheets): 98%
EC50 ([6]; MMV Malaria Box sheet, ref MMV data sheets, read-out: EC50_nM): 969 nM
growth inhibition of P. falciparum 3D7 asexual blood stage ([6]; at 5 μM, ref Van Voorhis et al., 2016): 98%
EC50 ([6]; source GNF, ref ChEMBL_NTD, read-out: CHEMBL EC50): 228 nM
growth inhibition of Trypanosoma cruzi (Trypanosoma cruzi): 100%

CCOc1cccc(C(=O)Nc2ccc(-c3nc4ccccc4[nH]3)cc2)c1 [MMV019202]
Solubility (Comment) [7]: Solubility issue at 5 uM
% inh. At 2.5 uM ([6]; Comment column, ref MMV data sheet): 97%
EC50 ([6]; value(s) per source (GSK, GNF, StJude), separated by semicolon, ref ChEMBL-NTD, read-out: CHEMBL EC50): 1010 nM

COc1ccc(-c2nonc2NC(=O)c2cccc(Cl)c2)cc1OC [MMV020660]
Comment: solubility [8]: Solubility issue at 5 uM
% inh. At 2.5 uM [6, 14]: 97%
EC50 [6, 15]: 876 nM

COc1ccc2c(=O)cc(C(Cl)(Cl)Cl)oc2c1 [MMV665820]
CC50 at 48 h [2]: 0.25 µM
lowering of relative expression of T. annulata gene TaSP (T. annulata gene TaSP): failed to lower the relative expression of T. annulata gene TaSP by 50%
inhibitory activity on T. annulata cell lines [9]: inhibitory
IC50 [1, 13]: 0.15 µM
TI (CC50/IC50), therapeutic index [1]: 1.67
percent_inh @ 5 uM ([6]; MMV Malaria Box data sheet, ref MMV data sheets): 94%
EC50 ([6]; MMV Malaria Box data sheet, ref MMV data sheets, read-out: EC50_nM): 520 nM
EC50 ([6]; source StJude, ref ChEMBL_NTD, read-out: CHEMBL EC50): 15000 nM
viability of human foreskin fibroblast control cells [10]: did not impair viability

CC(=O)c1ccc(NC(=O)CSc2nc(-c3ccccc3Cl)ns2)cc1 [MMV666124]
Comment: solubility [8]: Solubility issue at 5 uM
% inh. At 2.5 uM [6, 14]: 88%
EC50 [6, 15]: 1130 nM

N=C(N)Nc1ccc(-c2ccc(-c3ccc(N=C(N)N)c(Cl)c3)o2)cc1Cl [MMV688271]
CC50 [11]: 560 nM
TI (CC50/IC50), therapeutic index [1]: 0.95
IC50 [1, 12]: 0.59 µM
